Measurements published in patent US5798447A, “Antibodies specific for D-myo-inositol 1, 4, 5-trisphosphate and the enzyme-linked immunosorbent assay of D-myo-inositol 1, 4, 5-trisphosphate” (The Board of Governors for Higher Education State of Rhode …, priority 1996, dated 1998).
Entries after “also recorded” stand apart in the source; their conditions may differ.

Tests used:
[1] = system: affinity-purified Ins(1,4,5)P3-specific antibodies; assay: Inhibition of binding of affinity-purified antibodies to immobilized Ins(1,4,5)P3 by ions; design: species or system New Zealand White rabbit; conditions: for IC50: affinity-purified antibodies, preincubation 30 minutes, room temperature, read-out: IC50 for inhibition of antibody binding to immobilized Ins(1,4,5)P3; for inhibition of / interference with antibody binding to immobilized Ins(1,4,5)P3: concentration not stated with the result, or 'high concentrations'; for inhibition of antibody recognition by cations: concentrations up to 100 mM; for interference with antibody binding to immobilized Ins(1,4,5)P3: up to 0.3 mM
Experimental: (§1) The presence of anti-Ins(1,4,5)P3 antibodies in rabbit serum was detected by an ELISA. Ins(1,4,5)P3 (hapten) was covalently attached to microtiter plates through a C-6 linker by adding 6-O-(ω-Aminohexyl)-D-myo-inositol 1,4,5-triphosphate (1) (1.25 μg in 0.1 ml of phosphate buffered saline (PBS) per well) to maleic anhydride-activated polystyrene plates (Pierce). This anhydride-activated plate allows direct coupling of amine-bearing molecules to the well surface, (Pierce Chemical Co. Instruction 15110X (1992) REACTI-BIND™ Maleic Anhydride Activated Polystyrene Plates), and obviates the need for a carrier protein to immobilize haptens. The plate was incubated at room temperature overnight, and each well was blocked by adding 0.12 ml of SUPERBLOCK ™ blocking solution in PBS (Pierce). After 10 minutes at room temperature, the plate was washed twice with 0.05% Tween-20 in 10 mM Tris/HCl containing 0.85% NaCl, pH 7.2 (TBS), followed by TBS buffer twice. Rabbit antiserum (antibodies) diluted in TBS buffer containing 0.1% gelatin was added (95 μl per well). The plate was incubated at 37° C. for 2 hours, and washed as stated above. Specific antibody binding was assessed by adding goat anti-rabbit IgG-HRP conjugate (1/200 dilution in TBS containing 0.1% gelatin; 90 μl per well), and the plate was incubated for another 2 hours at 37° C. After the plate was washed again, the peroxidase substrate solution (90 μl per well) containing 2 mM 2,2'-azinobis(3-ethyl-benzthiazoline-6-sulfonic acid), 2.5 mM hydrogen peroxide, and 50 mM citrate buffer, with a final pH of 5.0, was added. The reaction was incubated at room temperature for 15-20 minutes, and terminated by adding 20 μl of 5% SDS to each well. The absorbance at 415 nm was measured by a microtiter plate reader. Rabbit serum taken before immunization was used as a control in all the assays, from which the absorbance values obtained served as a blank for the correction of experimental data.
Referring to FIG. 3, the affinity-purified antibodies were preincubated with individual multivalent ions at indicated concentrations for 30 minutes at room temperature before added to the (1,4,5)IP3 immobilized EIA plates. […] The assay for the binding inhibition was the same as that described for the ELISA in the Experimental Procedures. Percentage maximal antibody binding is expressed by B/Bo, where B=absorbance with inhibitor and Bo =absorbance without inhibitor. Each data point represents the means of three determinations.

[2] = system: IP3 -C5 -BSA induced antibodies (anti-Ins(1,4,5)P3 antiserum); assay: Competitive ELISA: immobilized Ins(1,4,5)P3 vs competitor, IP3-C5-BSA induced antiserum; format: binding, New Zealand White rabbit; conditions: for IC50: competitive ELISA, read-out: [Competitor] (M) at half maximal absorbance (B/Bo = 0.5) or IC50
Experimental: (§2) New Zealand White female rabbits were immunized with 1 mg of the IP3 -BSA conjugate in 0.5 ml of saline emulsified with an equal volume of Freund's complete adjuvant by five to six subcutaneous injections at the back and both flanks. Booster injections were given with the same amounts of the IP3 -BSA prepared with incomplete Freund's adjuvant at monthly intervals. After the second boost, the animals were bled from the ear vein 2 weeks after each booster injection. The antisera thus prepared were stored at -20° C. until used.
as §1
(§3) The avidity and specificity of these antisera were examined by competitive ELISA experiments between immobilized Ins(1,4,5)P3 and various inositol phosphates.
(§4) Table 1 Avidity of antisera toward various inositol phosphates and
(§5) PIP2. The avidity is expressed as the concentrations at halfmaximal
(§6) absorbance (B/Bo = 0.5) in the competitive ELISA experiments.

[3] = system: IP3 -C6 -NC5 -BSA induced antibodies (anti-Ins(1,4,5)P3 antiserum); assay: Competitive ELISA: immobilized Ins(1,4,5)P3 vs competitor, IP3-C6NC5-BSA induced antiserum; format: binding, New Zealand White rabbit; conditions: for IC50: IP3-C6-NC5-BSA induced antibodies, competitive ELISA, read-out: [Competitor] (M) at half maximal absorbance (B/Bo = 0.5) or IC50
Experimental: as §2, §1, §3, §4, §5, §6

[4] = system: affinity-purified Ins(1,4,5)P3-specific antibodies (from IP3 -C5 -BSA induced antiserum); assay: Competitive ELISA with affinity-purified Ins(1,4,5)P3-specific antibodies and inositol phosphates; format: binding, New Zealand White rabbit
Experimental: as §1
The antiserum (5.2 ml) was applied to an ECONO-PAC ™ protein A cartridge (5 ml, Bio-Rad) equilibrated with 100 mM Tris/HCl, pH 8.0. The column was washed with, in sequence, 20 ml of the equilibrating buffer, and 25 ml of 10 mM Tris/HCl, pH 8.0. The bound IgG was eluted with 25 ml of 100 mM glycine buffer, pH 3.0, at a flow rate of 0.5 ml/min. Fractions of 1.7 ml were collected in tubes containing 100 μl of 1M Tris/HCl, pH 8.0.
The dialyzed solution from step 1 was applied to a Ins(1,4,5)IP3 -agarose column (5.8 ml bed volume) equilibrated with 10 mM Tris/HCl, pH 7.5. The column was washed with the equilibration buffer followed by 500 mM NaCl in the same buffer. The absorbed proteins were eluted with, in sequence, 50 ml of 100 mM glycine buffer, pH 3.5, 10 ml of 10 mM Tris/HCl, pH 8.8, and 50 ml of 100 mM NaHCO3 /Na2 CO3 buffer, pH 10.5 Fractions of 1.7 ml were collected. For the eluate with the glycine buffer and with the NaHCO3 /Na2 /CO3 buffer, fractions were collected in tubes containing 100 μl of 1M Tris/HCl, pH 8.0, and 700 μl of 1M Tris/HCl, pH 7.6, respectively.
Referring to FIG. 2, the displacement curves were generated from competitive ELISA experiments between immobilized (1,4,5)IP3 and various inositol phosphates shown in the insert. The antibodies were preincubated with individual competitors at various concentrations for 30 minutes at room temperature before added to the (1,4,5)IP3 immobilized EIA plates. The assay for the competitive binding was the same as that described for the ELISA under "Experimental Procedures". Percentage total specific binding is expressed by B/Bo, where B=absorbance with competitor and Bo =absorbance without competitor. Each data point represents the means of three determinations. For clarity, the standard deviations were not shown.

[5] = system: Ins(1,4,5)P3 receptors; conditions: Wilcox et al. 1993, cited from earlier work

Compound | inhibition of / interference with antibody binding to immobilized Ins(1,4,5)P3 [1] | IC50 ([2]; IP3-C5-BSA induced antibodies) [M] | IC50 [3] [M] | lower affinity relative to Ins(1,4,5)P3 ([3]; both antiserum preparations) | other results
N.N.O=S(=O)(O)O [(NH4)2 SO4] | – | – | – | – | binding capability of antibodies after (NH4)2SO4 precipitation ([1]; even after extensive dialysis): complete loss of binding capability
Nc1ncnc2c1ncn2[C@@H]1O[C@H](COP(=O)(O)OP(=O)(O)OP(=O)(O)O)[C@@H](O)[C@H]1O [ATP^4 -] | could be disrupted | – | – | – | IC50 [1]: 210 µM
Cl [C1-] | no appreciable interference | – | – | – | –
O=P(O)(O)O [HPO4^2 -] | could be disrupted | – | – | – | IC50 [1]: 2610 µM
O=P(O)(O)O[C@H]1[C@H](OP(=O)(O)O)[C@@H](OP(=O)(O)O)[C@H](OP(=O)(O)O)[C@@H](OP(=O)(O)O)[C@H]1OP(=O)(O)O [IP6, Phytic acid] | – | 0.0008 | 0.00015 | two to four orders of magnitude | –
O=P(O)(O)OC1[C@H](O)[C@H](O)C(O)[C@H](O)[C@H]1O (some centres unmarked) [Ins(1)P1] | – | – | 0.00042 | two to four orders of magnitude | –
O=P(O)(O)O[C@H]1[C@H](OP(=O)(O)O)[C@@H](OP(=O)(O)O)[C@H](O)[C@@H](O)[C@H]1OP(=O)(O)O [Ins(1,2,5,6)P4] | – | 7.1e-05 | 2.1e-05 | two to four orders of magnitude | –
O=P(O)(O)O[C@H]1[C@H](O)[C@@H](O)[C@H](OP(=O)(O)O)[C@@H](OP(=O)(O)O)[C@H]1O [Ins(1,3,4)P3] | – | 1e-05 | 1.7e-06 | two to four orders of magnitude | decrease in affinity compared with IP3-C6NC5-BSA induced antiserum ([2]; IP3-C5-BSA induced antibodies): 10 fold; IC50 [4]: 39 µM; IC50 relative to that of Ins(1,4,5)P3 [4]: three orders or magnitude higher
O=P(O)(O)O[C@H]1[C@H](O)[C@@H](OP(=O)(O)O)[C@H](OP(=O)(O)O)[C@@H](OP(=O)(O)O)[C@H]1O [Ins(1,3,4,5)P4] | – | 7.1e-08 | 2e-07 | – | binding compared with IP3-C6NC5-BSA induced antiserum ([2]; IP3-C5-BSA induced antibodies): stronger binding; ratio of IC50[Ins(1,3,4,5)P4] to IC50[Ins(1,4,5)P3] ([2]; antiserum against IP3-C5-BSA): 2.3; differential affinity, ratio of IC50 values before purification ([2]; antiserum before affinity purification): 2 fold; IC50 [4]: 0.73 µM; differential affinity, ratio of IC50 values Ins(1,3,4,5)P4 / Ins(1,4,5)P3 [4]: 60 fold; ratio of IC50[Ins(1,3,4,5)P4] to IC50[Ins(1,4,5)P3] ([3]; antiserum against IP3-C6NC5-BSA): 2.2; affinity relative to Ins(1,4,5)P3 ([3]; both antiserum preparations): one-third of the affinity; weaker than Ins(1,4,5)P3 at displacing specific [3H]Ins(1,4,5)P3 binding [5]: about 40 fold; IC50 ([5]; read-out: IC50 for displacing [3H]Ins(1,4,5)P3 binding from Ins(1,4,5)P3 receptors): 0.762 µM
O=P(O)(O)OC1C(O)C(OP(=O)(O)O)C(OP(=O)(O)O)C(OP(=O)(O)O)C1OP(=O)(O)O (centres unmarked) [Ins(1,3,4,5,6)P5] | – | – | – | – | IC50 [4]: 45 µM; IC50 relative to that of Ins(1,4,5)P3 [4]: three orders or magnitude higher
O=P(O)(O)O[C@H]1[C@H](OP(=O)(O)O)[C@H](O)[C@H](O)[C@@H](O)[C@@H]1OP(=O)(O)O [Ins(1,5,6)P3] | – | – | – | two to four orders of magnitude | order of affinity toward various inositol phosphates ([3]; IP3-C6NC5-BSA induced antiserum): Ins(3,4,5,6)P4 >Ins(1,5,6)P3, PIP2, Ins(1,2,5,6)P4 >Ins(4,5)P2
O=P(O)(O)O[C@H]1[C@H](OP(=O)(O)O)[C@@H](OP(=O)(O)O)[C@@H](O)[C@@H](O)[C@@H]1OP(=O)(O)O [Ins(3,4,5,6)P4] | – | 6.3e-06 | 4.5e-06 | two to four orders of magnitude | –
O=P(O)(O)O[C@@H]1[C@@H](O)[C@H](O)[C@H](O)[C@H](O)[C@H]1OP(=O)(O)O [Ins(4,5)P2] | – | 2.5e-05 | 3.8e-05 | two to four orders of magnitude | IC50 [4]: 14 µM; IC50 relative to that of Ins(1,4,5)P3 [4]: three orders or magnitude higher
[K+] [K+] | did not affect the binding | – | – | – | inhibition of antibody recognition by cations [1]: did not cause significant inhibition
[N-]=[N+]=[N-] [N3 -] | no appreciable interference | – | – | – | –
N [NH4 +] | – | – | – | – | inhibition of antibody recognition by cations [1]: did not cause significant inhibition
[Na+] [Na+] | no inhibiting effect; also recorded: did not affect the binding | – | – | – | inhibition of antibody recognition by cations [1]: did not cause significant inhibition
O=S(=O)(O)O [SO4^2 -] | could be disrupted | – | – | – | IC50 [1]: 11600 µM
NC(CO)(CO)CO [Tris] | – | – | – | – | inhibition of antibody recognition by cations [1]: did not cause significant inhibition
PIP2 | – | 3.2e-05 | 1.6e-05 | two to four orders of magnitude | IC50 [4]: 14 µM; IC50 relative to that of Ins(1,4,5)P3 [4]: three orders or magnitude higher
heparin | – | – | – | – | interference with antibody binding to immobilized Ins(1,4,5)P3 [1]: not affected; interference with antibody binding to immobilized Ins(1,4,5)P3 ([1]; listed as haparin): no appreciable interference
